In paper PMC6325638 (Clinics in liver disease, 2017):
Like-named read-outs stand apart in the source and are kept apart here.

Tests used:
zebrafish larvae [1] = system: zebrafish larvae
[2] = system: 3D multicellular microphysiological systems (MPS) of the human liver; conditions: 3D multicellular microfluidic human liver model; cited from earlier work
zebrafish larvae [3] = conditions: in vivo
cultured rat hepatocytes = test: ROS induction and death in cultured hepatocytes; type: cell-based; conditions: 96-well plates, oxyethidium fluorescence
[4] = 72 hpf zebrafish larvae, 0.66 μM
[5] = 72 hpf zebrafish larvae, 6.6 μM
[6] = 72 hpf zebrafish larvae, 200 μM
[7] = 72 hpf zebrafish larvae, 0.07 μM
[8] = 72 hpf zebrafish larvae, 0.2 μM

CCCCc1oc2ccccc2c1C(=O)c1cc(I)c(OCCN(CC)CC)c(I)c1 [Amiodarone]
Live/dead (translucent = live, opaque = dead) (zebrafish larvae [1]; [4]): 4/0 | Live/dead (translucent = live, opaque = dead) (zebrafish larvae [1]; 72 hpf zebrafish larvae, 2 μM): 4/0 | Live/dead (translucent = live, opaque = dead) (zebrafish larvae [1]; [5]): 4/0 | Live/dead (translucent = live, opaque = dead) (zebrafish larvae [1]; 72 hpf zebrafish larvae, 20 μM): 4/0 | Live/dead (translucent = live, opaque = dead) (zebrafish larvae [1]; 72 hpf zebrafish larvae, 66 μM): 0/4 | Live/dead (translucent = live, opaque = dead) (zebrafish larvae [1]; [6]): 0/4

C=C(C)[C@H]1Cc2c(ccc3c2O[C@@H]2COc4cc(OC)c(OC)cc4[C@@H]2C3=O)O1 [Rotenone]
Live/dead (translucent = live, opaque = dead) (zebrafish larvae [1]; [7]): 4/0 | Visual toxicity (bent tail, distended peritoneum, edema, pericardial congestion) (zebrafish larvae [1]; [7]): 2/4 | Live/dead (translucent = live, opaque = dead) (zebrafish larvae [1]; [8]): 4/0 | Visual toxicity (bent tail, distended peritoneum, edema, pericardial congestion) (zebrafish larvae [1]; [8]): 3/4 | Live/dead (translucent = live, opaque = dead) (zebrafish larvae [1]; [4]): 4/0 | Visual toxicity (bent tail, distended peritoneum, edema, pericardial congestion) (zebrafish larvae [1]; [4]): 2/4 | Live/dead (translucent = live, opaque = dead) (zebrafish larvae [1]; 72 hpf zebrafish larvae, 2 μM): 4/0 | Visual toxicity (bent tail, distended peritoneum, edema, pericardial congestion) (zebrafish larvae [1]; 72 hpf zebrafish larvae, 2 μM): 1/4 | Visual toxicity (bent tail, distended peritoneum, edema, pericardial congestion) (zebrafish larvae [1]; [5]): 0/3 | Live/dead (translucent = live, opaque = dead) (zebrafish larvae [1]; 72 hpf zebrafish larvae, 20 μM): 1/4 | Visual toxicity (bent tail, distended peritoneum, edema, pericardial congestion) (zebrafish larvae [1]; 72 hpf zebrafish larvae, 20 μM): 1/1

N#CC(C#N)=NNc1cccc(Cl)c1 [CCCP, Carbonyl cyandide m-chorophenyl hydrazone]
Live/dead (translucent = live, opaque = dead) (zebrafish larvae [1]; [7]): 4/0 | Visual toxicity (bent tail, distended peritoneum, edema, pericardial congestion) (zebrafish larvae [1]; [7]): 2/4 | Live/dead (translucent = live, opaque = dead) (zebrafish larvae [1]; [8]): 4/0 | Visual toxicity (bent tail, distended peritoneum, edema, pericardial congestion) (zebrafish larvae [1]; [8]): 4/4 | Live/dead (translucent = live, opaque = dead) (zebrafish larvae [1]; [4]): 4/0 | Visual toxicity (bent tail, distended peritoneum, edema, pericardial congestion) (zebrafish larvae [1]; [4]): 3/4 | Live/dead (translucent = live, opaque = dead) (zebrafish larvae [1]; 72 hpf zebrafish larvae, 2 μM): 4/0 | Visual toxicity (bent tail, distended peritoneum, edema, pericardial congestion) (zebrafish larvae [1]; 72 hpf zebrafish larvae, 2 μM): 3/4 | Live/dead (translucent = live, opaque = dead) (zebrafish larvae [1]; [5]): 4/0 | Visual toxicity (bent tail, distended peritoneum, edema, pericardial congestion) (zebrafish larvae [1]; [5]): 2/4 | Visual toxicity (bent tail, distended peritoneum, edema, pericardial congestion) (zebrafish larvae [1]; 72 hpf zebrafish larvae, 20 μM): 0/1

CN(Cc1cnc2nc(N)nc(N)c2n1)c1ccc(C(=O)N[C@@H](CCC(=O)O)C(=O)O)cc1 [methotrexate]
Chronic drug effect in human liver MPS [2]: induction of fibrosis

Cn1c(=O)c2c(ncn2C)n(C)c1=O [Caffeine]
Live/dead (translucent = live, opaque = dead) (zebrafish larvae [1]; 72 hpf zebrafish larvae, 3 μM): 4/0 | Live/dead (translucent = live, opaque = dead) (zebrafish larvae [1]; 72 hpf zebrafish larvae, 10 μM): 4/0 | Live/dead (translucent = live, opaque = dead) (zebrafish larvae [1]; 72 hpf zebrafish larvae, 30 μM): 4/0 | Live/dead (translucent = live, opaque = dead) (zebrafish larvae [1]; 72 hpf zebrafish larvae, 100 μM): 4/0 | Live/dead (translucent = live, opaque = dead) (zebrafish larvae [1]; 72 hpf zebrafish larvae, 300 μM): 4/0 | Live/dead (translucent = live, opaque = dead) (zebrafish larvae [1]; 72 hpf zebrafish larvae, 1000 μM): 4/0

CC1=CC(=O)c2ccccc2C1=O [Menadione]
Generation of ROS in zebrafish (zebrafish larvae [3]): time-dependent and dose-dependent generation of ROS | ROS induction and death in cultured hepatocytes (cultured rat hepatocytes): ROS induction and death in cultured hepatocytes | Live/dead (translucent = live, opaque = dead) (zebrafish larvae [1]; [4]): 4/0 | Live/dead (translucent = live, opaque = dead) (zebrafish larvae [1]; 72 hpf zebrafish larvae, 2 μM): 4/0 | Live/dead (translucent = live, opaque = dead) (zebrafish larvae [1]; [5]): 4/0 | Live/dead (translucent = live, opaque = dead) (zebrafish larvae [1]; 72 hpf zebrafish larvae, 20 μM): 0/4 | Live/dead (translucent = live, opaque = dead) (zebrafish larvae [1]; 72 hpf zebrafish larvae, 66 μM): 0/4 | Live/dead (translucent = live, opaque = dead) (zebrafish larvae [1]; [6]): 0/4 | Visual toxicity (bent tail, distended peritoneum, edema, pericardial congestion) (zebrafish larvae [1]; zebrafish, in vivo, 0.66 μM): 0/4 | Visual toxicity (bent tail, distended peritoneum, edema, pericardial congestion) (zebrafish larvae [1]; zebrafish, in vivo, 2 μM): 2/4 | Visual toxicity (bent tail, distended peritoneum, edema, pericardial congestion) (zebrafish larvae [1]; zebrafish, in vivo, 6.6 μM): 1/4
